Biological target: C-Raf FL (full length CRAF with Y340E and Y341E activating mutations, co-expressed with h14-3-3 zeta) (Homo sapiens (Human), UniProt P04049, Y340E/Y341E)
Assay: In vitro Raf activity determination, AlphaScreen p-MEK readout, c-Raf (C-Raf FL)
Assay type: biochemical
Details: c-Raf approximately 4 nM, ATP 1 μM, pre-incubation 60 minutes, reaction 1 hour
How it was run: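 Phosphorylation of kinase-dead biotinylated MEK1 (~10 nM) by C-Raf FL (~4 nM) read by AlphaScreen luminescence with anti-phospho-MEK1/2 after EDTA stop. ATP was 1 μM, with a 1 h reaction at room temperature. Compounds were pre-incubated with enzyme and substrate for 60 min in Tris/MgCl2 buffer, pH 7.5.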

Chain of C-Raf FL (full length CRAF with Y340E and Y341E activating mutations, co-expressed with h14-3-3 zeta) (P04049 whole entry Y340E/Y341E): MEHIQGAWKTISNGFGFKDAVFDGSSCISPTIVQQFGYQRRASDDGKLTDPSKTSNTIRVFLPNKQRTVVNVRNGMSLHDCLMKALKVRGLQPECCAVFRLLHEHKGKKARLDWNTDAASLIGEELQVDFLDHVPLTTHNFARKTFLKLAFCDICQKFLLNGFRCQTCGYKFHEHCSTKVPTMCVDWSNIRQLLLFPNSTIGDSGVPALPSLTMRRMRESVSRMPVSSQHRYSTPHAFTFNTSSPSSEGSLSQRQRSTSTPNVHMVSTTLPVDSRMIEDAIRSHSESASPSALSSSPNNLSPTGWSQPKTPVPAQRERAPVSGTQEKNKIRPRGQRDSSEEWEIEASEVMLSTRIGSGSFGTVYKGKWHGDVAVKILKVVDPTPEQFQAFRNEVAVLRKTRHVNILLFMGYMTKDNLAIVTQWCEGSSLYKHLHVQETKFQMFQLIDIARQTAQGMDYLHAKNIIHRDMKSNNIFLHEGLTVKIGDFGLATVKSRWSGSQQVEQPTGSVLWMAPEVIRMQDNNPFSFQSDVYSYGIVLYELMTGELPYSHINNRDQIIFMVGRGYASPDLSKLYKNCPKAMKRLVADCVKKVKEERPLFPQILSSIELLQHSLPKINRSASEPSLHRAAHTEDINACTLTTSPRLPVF
Chain of C-Raf FL (full length CRAF with Y340E and Y341E activating mutations, co-expressed with h14-3-3 zeta) (P63104 whole entry partner): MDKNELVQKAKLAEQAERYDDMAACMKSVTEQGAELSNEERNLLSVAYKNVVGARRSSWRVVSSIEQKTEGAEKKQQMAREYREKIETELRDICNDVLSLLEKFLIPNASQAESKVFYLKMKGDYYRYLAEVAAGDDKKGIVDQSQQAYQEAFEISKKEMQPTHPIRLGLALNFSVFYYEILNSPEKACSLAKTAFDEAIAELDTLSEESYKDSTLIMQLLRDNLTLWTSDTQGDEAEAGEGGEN

`Cc1ccc(NC(=O)c2ccnc(C(C)(C)F)c2)cc1-c1cc(F)c2c(c1)N1CCOC[C@H]1[C@@](F)(CO)C2` [Example 432, N-(3-((4aS,5R)-5,7-difluoro-5-(hydroxymethyl)-1,2,4,4a,5,6-hexahydro-[1,4]oxazino[4,3-a]quinolin-9-yl)-4-methylphenyl)-2-(2-fluoropropan-2-yl)isonicotinamide] and `Cc1ccc(NC(=O)c2ccnc(C(C)(C)F)c2)cc1-c1cc(F)c2c(c1)N1CCOC[C@@H]1[C@](F)(CO)C2` [Example 438, N-(3-((4aR,5S)-5,7-difluoro-5-(hydroxymethyl)-1,2,4,4a,5,6-hexahydro-[1,4]oxazino[4,3-a]quinolin-9-yl)-4-methylphenyl)-2-(2-fluoropropan-2-yl)isonicotinamide] are within 1.5-fold of each other in IC50: 700 pM for the first, 800 pM for the second.

`Cc1ccc(NC(=O)c2cnnc(C(F)(F)F)c2)cc1-c1cc(F)c2c(c1)N1CCOC[C@H]1[C@@](F)(CO)C2` [Example 433, N-(3-((4aS,5R)-5,7-difluoro-5-(hydroxymethyl)-1,2,4,4a,5,6-hexahydro-[1,4]oxazino[4,3-a]quinolin-9-yl)-4-methylphenyl)-6-(trifluoromethyl)pyridazine-4-carboxamide] and `Cc1ccc(NC(=O)c2cnnc(C(F)(F)F)c2)cc1-c1cc(F)c2c(c1)N1CCOC[C@@H]1[C@](F)(CO)C2` [Example 439, N-(3-((4aR,5S)-5,7-difluoro-5-(hydroxymethyl)-1,2,4,4a,5,6-hexahydro-[1,4]oxazino[4,3-a]quinolin-9-yl)-4-methylphenyl)-6-(trifluoromethyl) pyridazine-4-carboxamide] are the same in IC50: 100 pM for the first, 100 pM for the second.

Going from `Cc1ccc(NC(=O)c2cncc(C(F)(F)F)c2)cc1-c1cc(F)c2c(c1)N1CCOC[C@H]1[C@@](F)(CO)C2` [Example 434, N-(3-((4aS,5R)-5,7-difluoro-5-(hydroxymethyl)-1,2,4,4a,5,6-hexahydro-[1,4]oxazino[4,3-a]quinolin-9-yl)-4-methylphenyl)-5-(trifluoromethyl)nicotinamide] to `Cc1ccc(NC(=O)c2cncc(C(F)(F)F)c2)cc1-c1cc(F)c2c(c1)N1CCOC[C@@H]1[C@](F)(CO)C2` [Example 440, N-(3-((4aR,5S)-5,7-difluoro-5-(hydroxymethyl)-1,2,4,4a,5,6-hexahydro-[1,4]oxazino[4,3-a]quinolin-9-yl)-4-methylphenyl)-5-(trifluoromethyl) nicotinamide], the IC50 falls from 1300 pM to 300 pM (4.3-fold). The second is the more potent here.

Compared with `Cc1ccc(NC(=O)c2ccnc(C(C)(F)F)c2)cc1-c1cc(F)c2c(c1)N1CCOC[C@@H]1[C@](F)(CO)C2` [Example 436, N-(3-((4aR,5S)-5,7-difluoro-5-(hydroxymethyl)-1,2,4,4a,5,6-hexahydro-[1,4]oxazino[4,3-a]quinolin-9-yl)-4-methylphenyl)-2-(1,1-difluoroethyl) isonicotinamide], `Cc1ncc(NC(=O)c2cccc(C(F)(F)F)c2)cc1-c1cc(F)c2c(c1)N1CCOC[C@@H]1[C@](F)(CO)C2` [Example 437, N-(5-((4aR,5S)-5,7-difluoro-5-(hydroxymethyl)-1,2,4,4a,5,6-hexahydro-[1,4]oxazino[4,3-a]quinolin-9-yl)-6-methylpyridin-3-yl)-3-(trifluoro-methyl)benzamide] is 2-fold higher in IC50: 300 pM for the first, 600 pM for the second. The first is the more potent here.

`Cc1ncc(NC(=O)c2ccnc(C(F)(F)F)c2)cc1-c1ccc2c(c1)N1CCOCC[C@H]1C[C@H]2O` [Example 442, N-(5-((5aS,7R)-7-hydroxy-1,2,5,5a,6,7-hexahydro-4H-[1,4]oxazepino [4,5-a]quinolin-10-yl)-6-methylpyridin-3-yl)-2-(trifluoromethyl) isonicotinamide] and `Cc1ncc(NC(=O)c2ccnc(C(F)(F)F)c2)cc1-c1ccc2c(c1)N1CCOCC[C@H]1C[C@@H]2O` [Example 443, N-(5-((5aS,7S)-7-hydroxy-1,2,5,5a,6,7-hexahydro-4H-[1,4]oxazepino [4,5-a]quinolin-10-yl)-6-methylpyridin-3-yl)-2-(trifluoromethyl) isonicotinamide] are within 1.5-fold of each other in IC50: 700 pM for the first, 600 pM for the second.

First: Cc1ncc(NC(=O)c2ccnc(C(C)(C)F)c2)cc1-c1ccc2c(c1)N1CCOCC[C@H]1C[C@H]2O [Example 444]
Second: Cc1ncc(NC(=O)c2ccnc(C(C)(C)F)c2)cc1-c1ccc2c(c1)N1CCOCC[C@H]1C[C@@H]2O [Example 445, 2-(2-fluoropropan-2-yl)-N-(5-((5aS,7S)-7-hydroxy-1,2,5,5a,6,7-hexahydro-4H-[1,4]oxazepino [4,5-a]quinolin-10-yl)-6-methylpyridin-3-yl)isonicotinamide]
The IC50 of the first is 1.8-fold lower: 400 pM for the first, 700 pM for the second. The first is the more potent here.

`Cc1ncc(NC(=O)c2cccc(C(F)(F)F)c2)cc1-c1ccc2c(c1)N1CCOCC[C@H]1C[C@H]2O` [Example 446, N-(5-((5aS,7R)-7-hydroxy-1,2,5,5a,6,7-hexahydro-4H-[1,4]oxazepino [4,5-a]quinolin-10-yl)-6-methylpyridin-3-yl)-3-(trifluoro-methyl)benzamide] and `Cc1ncc(NC(=O)c2cccc(C(F)(F)F)c2)cc1-c1ccc2c(c1)N1CCOCC[C@H]1C[C@@H]2O` [Example 447, N-(5-((5aS,7S)-7-hydroxy-1,2,5,5a,6,7-hexahydro-4H-[1,4]oxazepino [4,5-a]quinolin-10-yl)-6-methylpyridin-3-yl)-3-(trifluoro-methyl)benzamide] are within 1.5-fold of each other in IC50: 700 pM for the first, 500 pM for the second.

Compared with `Cc1ccc(NC(=O)c2ccnc(C(F)(F)F)c2)cc1-c1cnc2c(c1)N1CCOC[C@@H]1[C@H](C(C)(C)O)C2` [Example 448, N-(3-((4aS,5R)-5-(2-hydroxypropan-2-yl)-1,2,4,4a,5,6-hexahydro-[1,4]oxazino[4,3-a][1,5]naphthyridin-9-yl)-4-methylphenyl)-2-(trifluoromethyl)isonicotinamide], `Cc1ccc(NC(=O)c2ccnc(C(F)(F)F)c2)cc1-c1cnc2c(c1)N1CCOC[C@H]1[C@@H](C(C)(C)O)C2` [Example 451, N-(3-((4aR,5S)-5-(2-hydroxypropan-2-yl)-1,2,4,4a,5,6-hexahydro-[1,4]oxazino[4,3-a][1,5]naphthyridin-9-yl)-4-methylphenyl)-2-(trifluoromethyl) isonicotinamide] is 3-fold higher in IC50: 200 pM for the first, 600 pM for the second.

`Cc1ncc(NC(=O)c2cccc(C(F)(F)F)c2)cc1-c1cnc2c(c1)N1CCOC[C@@H]1[C@H](C(C)(C)O)C2` [Example 449, N-(5-((4aS,5R)-5-(2-hydroxypropan-2-yl)-1,2,4,4a,5,6-hexahydro-[1,4]oxazino[4,3-a] [1,5]naphthyridin-9-yl)-6-methylpyridin-3-yl)-3-(trifluoro-methyl)benzamide] and `Cc1ncc(NC(=O)c2cccc(C(F)(F)F)c2)cc1-c1cnc2c(c1)N1CCOC[C@H]1[C@@H](C(C)(C)O)C2` [Example 452, N-(5-((4aR,5S)-5-(2-hydroxypropan-2-yl)-1,2,4,4a,5,6-hexahydro-[1,4]oxazino[4,3-a][1,5]naphthyridin-9-yl)-6-methylpyridin-3-yl)-3-(trifluoro-methyl)benzamide] are within 1.5-fold of each other in IC50: 700 pM for the first, 500 pM for the second.

With `Cc1ccc(NC(=O)c2ccnc(C(C)(F)F)c2)cc1-c1cnc2c(c1)N1CCOC[C@@H]1[C@H](C(C)(C)O)C2` [Example 450, 2-(1,1-difluoroethyl)-N-(3-((4aS,5R)-5-(2-hydroxypropan-2-yl)-1,2,4,4a,5,6-hexahydro-[1,4]oxazino[4,3-a][1,5]naphthyridin-9-yl)-4-methylphenyl) isonicotinamide] the IC50 was 200 pM.

— US10377770B2 (Novartis AG, priority 2015, dated 2019)
